Measurements: PubChem BioAssay AID330 (DTP/NCI, 2004)
Values joined by “and” are separate entries in the source; they are usually repeats but may differ in a detail not shown here. Equal values may be shown once. Inconclusive results and toxic doses are left out.

Tested on: P388 leukemia ip, CD2F1 mice, survival T/C
Test: NCI In Vivo Anticancer Drug Screen. Data for tumor model P388 Leukemia (intraperitoneal) in CD2F1 (CDF1) mice
Settings: endpoint: median survival time, higher = longer survival
Summary of the method: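 Mice carrying the transplanted tumor received test compound or vehicle. Survival was recorded in each group, and the value is the treated-group measurement divided by that of the vehicle-treated control group.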

[1] = dose: 50.0 mg/kg/injection, schedule: Q01DX009 (ip), vehicle: Klucel (hydroxypropylcellulose) (HPC)
[2] = dose: 50.0 mg/kg/injection, schedule: Q01DX005 (ip), vehicle: Klucel (hydroxypropylcellulose) (HPC)
[3] = dose: 100.0 mg/kg/injection, schedule: Q01DX005 (ip), vehicle: Klucel (hydroxypropylcellulose) (HPC)
[4] = dose: 200.0 mg/kg/injection, schedule: Q01DX005 (ip), vehicle: Klucel (hydroxypropylcellulose) (HPC)
[5] = dose: 100.0 mg/kg/injection, schedule: Q01DX009 (ip), vehicle: saline with Tween-80
[6] = dose: 100.0 mg/kg/injection, schedule: Q04DX003 (ip), vehicle: saline with Tween-80
[7] = dose: 200.0 mg/kg/injection, schedule: Q01DX009 (ip), vehicle: saline with Tween-80
[8] = dose: 200.0 mg/kg/injection, schedule: Q04DX003 (ip), vehicle: saline with Tween-80
[9] = dose: 400.0 mg/kg/injection, schedule: Q04DX003 (ip), vehicle: saline with Tween-80
[10] = dose: 50.0 mg/kg/injection, schedule: Q01DX005 (ip), vehicle: saline with Tween-80
[11] = dose: 100.0 mg/kg/injection, schedule: Q01DX005 (ip), vehicle: saline with Tween-80
[12] = dose: 60.0 mg/kg/injection, schedule: Q01DX005 (ip), vehicle: saline with Tween-80
[13] = dose: 120.0 mg/kg/injection, schedule: Q01DX005 (ip), vehicle: saline with Tween-80
[14] = dose: 240.0 mg/kg/injection, schedule: Q01DX005 (ip), vehicle: saline with Tween-80
[15] = dose: 50.0 mg/kg/injection, schedule: Q01DX009 (ip), vehicle: saline
[16] = dose: 100.0 mg/kg/injection, schedule: Q01DX001 (ip), vehicle: saline with Tween-80

SMILES: CCCC(=O)C(=O)c1ccc(O)cc1O
- T/C [1]: 108 % of control
- T/C (dose: 100.0 mg/kg/injection, schedule: Q01DX009 (ip), vehicle: Klucel (hydroxypropylcellulose) (HPC)): 116 % of control
- T/C (dose: 200.0 mg/kg/injection, schedule: Q01DX009 (ip), vehicle: Klucel (hydroxypropylcellulose) (HPC)): 119 % of control

SMILES: COC(=O)CCSC(=O)NS(=O)(=O)c1ccc(C)cc1
- T/C [2]: 104 % of control
- T/C [3]: 102 % of control
- T/C [4]: 104 % of control

SMILES: CC(=O)n1ccc(=O)[nH]c1=O
- T/C (dose: 50.0 mg/kg/injection, schedule: Q01DX009 (ip), vehicle: saline with Tween-80): 87 % of control
- T/C [5]: 96 % of control
- T/C [6]: 100 % of control
- T/C [7]: 96 % of control
- T/C [8]: 96 % of control
- T/C [9]: 96 % of control

SMILES: COCCOC(=O)CCn1cc(F)c(=O)[nH]c1=O
- T/C (dose: 30.0 mg/kg/injection, schedule: Q04DX002 (ip), vehicle: saline): 92 % of control
- T/C (dose: 60.0 mg/kg/injection, schedule: Q04DX002 (ip), vehicle: saline): 108 % of control
- T/C (dose: 120.0 mg/kg/injection, schedule: Q04DX002 (ip), vehicle: saline): 96 % of control
- T/C (dose: 200.0 mg/kg/injection, schedule: Q04DX002 (ip), vehicle: saline): 91 % of control and 123 % of control
- T/C (dose: 240.0 mg/kg/injection, schedule: Q04DX002 (ip), vehicle: saline): 96 % of control
- T/C (dose: 400.0 mg/kg/injection, schedule: Q04DX002 (ip), vehicle: saline): 93 % of control
- T/C (dose: 600.0 mg/kg/injection, schedule: Q04DX002 (ip), vehicle: saline): 91 % of control
- T/C (dose: 800.0 mg/kg/injection, schedule: Q04DX002 (ip), vehicle: saline): 118 % of control
- T/C (dose: 1600.0 mg/kg/injection, schedule: Q04DX002 (ip), vehicle: saline): 155 % of control

SMILES: Oc1ccccc1-c1cc(-c2ccccc2)nc(NCCCCCCNc2nc(-c3ccccc3)cc(-c3ccccc3O)n2)n1
- T/C [2]: 90 % of control
- T/C [3]: 90 % of control

SMILES: Cc1ccc(NC(=O)c2ccc(Cl)cc2Cl)cc1C
- T/C [5]: 95 % of control
- T/C [7]: 104 % of control
- T/C (dose: 400.0 mg/kg/injection, schedule: Q01DX009 (ip), vehicle: saline with Tween-80): 100 % of control

SMILES: C[n+]1c(-c2ccc(/C=N/NC(=O)c3ccc(C(=O)N/N=C/c4ccc(-c5cn6ccccc6[n+]5C)cc4)c(O)c3O)cc2)cn2ccccc21
- T/C [10]: 107 % of control
- T/C [11]: 96 % of control

SMILES: CN(C)c1nc(=O)c2c(ccc3ccccc32)o1
- T/C [12]: 97 % of control
- T/C [13]: 104 % of control
- T/C [14]: 101 % of control

SMILES: CCCCCCCCCCCCNCC(=O)O
- T/C (dose: 25.0 mg/kg/injection, schedule: Q01DX009 (ip), vehicle: saline): 109 % of control
- T/C [15]: 113 % of control

SMILES: CS/C(=N\N=C(/C)c1ccccn1)N1CCN(c2ccccn2)CC1
- T/C [6]: 98 % of control
- T/C [8]: 99 % of control
- T/C [9]: 96 % of control

SMILES: OCC1OC(n2cnc3c(SCc4ccccn4)ncnc32)C(O)C1O (stereo not drawn)
- T/C (dose: 12.5 mg/kg/injection, schedule: Q04DX003 (ip), vehicle: saline with Tween-80): 109 % of control
- T/C (dose: 25.0 mg/kg/injection, schedule: Q04DX003 (ip), vehicle: saline with Tween-80): 96 % of control
- T/C (dose: 50.0 mg/kg/injection, schedule: Q04DX003 (ip), vehicle: saline with Tween-80): 99 % of control
- T/C [6]: 96 % of control

SMILES: C=CCNC(=S)N/N=C(/C=C/c1ccc(OC)cc1)CCN(C)C
- T/C [16]: 87 % of control
- T/C (dose: 200.0 mg/kg/injection, schedule: Q01DX001 (ip), vehicle: saline with Tween-80): 89 % of control
- T/C (dose: 400.0 mg/kg/injection, schedule: Q01DX001 (ip), vehicle: saline with Tween-80): 90 % of control

SMILES: CC(C)(C)C(O)c1cccnc1 (stereo not drawn)
- T/C [6]: 110 % of control
- T/C [8]: 101 % of control

SMILES: CCCCOC(=O)/C=C/C(=O)N1CCN(C(=O)/C=C/C(=O)OCCCC)C(C)C1 (stereo not drawn)
- T/C [2]: 100 % of control
- T/C [3]: 94 % of control
- T/C [4]: 96 % of control

SMILES: CNC(=O)NCCCCCCNC(=O)NC
- T/C [2]: 99 % of control and 95 % of control
- T/C [3]: 87 % of control and 95 % of control
- T/C [4]: 89 % of control

SMILES: CCCCCCC(=O)/C=C\c1ccccc1
- T/C (dose: 25.0 mg/kg/injection, schedule: Q04DX002 (ip), vehicle: saline with Tween-80): 95 % of control
- T/C (dose: 50.0 mg/kg/injection, schedule: Q04DX002 (ip), vehicle: saline with Tween-80): 100 % of control
- T/C (dose: 100.0 mg/kg/injection, schedule: Q04DX002 (ip), vehicle: saline with Tween-80): 97 % of control
- T/C (dose: 200.0 mg/kg/injection, schedule: Q04DX002 (ip), vehicle: saline with Tween-80): 106 % of control

SMILES: N#CC(Br)C(N)=O (stereo not drawn)
- T/C (dose: 1.25 mg/kg/injection, schedule: Q01DX009 (ip), vehicle: saline with Tween-80): 104 % of control
- T/C (dose: 2.5 mg/kg/injection, schedule: Q01DX009 (ip), vehicle: saline with Tween-80): 124 % of control
- T/C (dose: 5.0 mg/kg/injection, schedule: Q01DX009 (ip), vehicle: saline with Tween-80): 119 % of control

SMILES: O=NN(CCCl)C(=O)Oc1c(Cl)cc(Cl)cc1Cl
- T/C (dose: 50.0 mg/kg/injection, schedule: Q01DX001 (ip), vehicle: saline with Tween-80): 163 % of control
- T/C (dose: 67.0 mg/kg/injection, schedule: Q01DX001 (ip), vehicle: saline with Tween-80): 99 % of control
- T/C [16]: 193 % of control

SMILES: NC(=O)c1c[n+]([O-])ccc1[N+](=O)[O-]
- T/C (dose: 6.25 mg/kg/injection, schedule: Q01DX009 (ip), vehicle: Klucel (hydroxypropylcellulose) (HPC)): 108 % of control
- T/C (dose: 12.5 mg/kg/injection, schedule: Q01DX009 (ip), vehicle: Klucel (hydroxypropylcellulose) (HPC)): 117 % of control
- T/C (dose: 25.0 mg/kg/injection, schedule: Q01DX009 (ip), vehicle: Klucel (hydroxypropylcellulose) (HPC)): 117 % of control
- T/C [1]: 119 % of control

SMILES: CC1(C)S/C(=C\c2ccccc2)c2nc3ccccc3c(=O)n21
- T/C [12]: 97 % of control
- T/C [13]: 91 % of control
- T/C [14]: 89 % of control

SMILES: Cc1cc2ccccc2cc1N
- T/C [15]: 106 % of control
- T/C (dose: 100.0 mg/kg/injection, schedule: Q01DX009 (ip), vehicle: saline): 100 % of control
- T/C (dose: 200.0 mg/kg/injection, schedule: Q01DX009 (ip), vehicle: saline): 97 % of control

SMILES: COc1ccc2ccc3nonc3c2c1
- T/C [10]: 92 % of control
- T/C [11]: 99 % of control
- T/C (dose: 200.0 mg/kg/injection, schedule: Q01DX005 (ip), vehicle: saline with Tween-80): 91 % of control

SMILES: COc1c2ccc(OCC=C(C)C)cc2nc2occc12
- T/C (dose: 7.0 mg/kg/injection, schedule: Q01DX005 (ip), vehicle: Klucel + Tween-80): 106 % of control
- T/C (dose: 14.0 mg/kg/injection, schedule: Q01DX005 (ip), vehicle: Klucel + Tween-80): 103 % of control
- T/C (dose: 28.0 mg/kg/injection, schedule: Q01DX005 (ip), vehicle: Klucel + Tween-80): 99 % of control
- T/C (dose: 56.0 mg/kg/injection, schedule: Q01DX005 (ip), vehicle: Klucel + Tween-80): 103 % of control

SMILES: CC(C#N)(C#N)N=Nc1ccc(Br)cc1
- T/C [10]: 106 % of control
- T/C [11]: 105 % of control

SMILES: CC1=CN(C(=O)c2ccccc2)C(C#N)N(C(=O)c2ccccc2)C1C#N (stereo not drawn)
- T/C (dose: 60.0 mg/kg/injection, schedule: Q01DX005 (ip), vehicle: Klucel (hydroxypropylcellulose) (HPC)): 100 % of control
- T/C (dose: 120.0 mg/kg/injection, schedule: Q01DX005 (ip), vehicle: Klucel (hydroxypropylcellulose) (HPC)): 103 % of control
- T/C (dose: 240.0 mg/kg/injection, schedule: Q01DX005 (ip), vehicle: Klucel (hydroxypropylcellulose) (HPC)): 102 % of control

SMILES: CCCCN(Cc1ccccc1)CC(O)CN=Cc1ccc(C=NCC(O)CN(CCCC)Cc2ccccc2)cc1 (stereo not drawn)
- T/C (dose: 50.0 mg/kg/injection, schedule: Q01DX005 (ip), vehicle: saline + Tween-80 + alcohol): 102 % of control
- T/C (dose: 100.0 mg/kg/injection, schedule: Q01DX005 (ip), vehicle: saline + Tween-80 + alcohol): 107 % of control
- T/C (dose: 200.0 mg/kg/injection, schedule: Q01DX005 (ip), vehicle: saline + Tween-80 + alcohol): 98 % of control

SMILES: Oc1cc2c(cc1-c1cc3c(cc1O)OCO3)OCO2
- T/C (dose: 25.0 mg/kg/injection, schedule: Q01DX005 (ip), vehicle: Klucel (hydroxypropylcellulose) (HPC)): 100 % of control
- T/C [2]: 100 % of control
- T/C [3]: 105 % of control
- T/C [4]: 100 % of control

SMILES: O=C(C(Cl)Cl)N1CCN(C(=O)C(Cl)Cl)CC1
- T/C [2]: 102 % of control
- T/C [3]: 110 % of control
- T/C [4]: 105 % of control
